In patent publication US20250144067A1, “PERSONALIZED STARVATION THERAPY FOR CANCER” (Faeth Therapeutics, Inc., priority 2021, published 2025):
Structures can show the parent of a compound that is named as a salt.

Experiments:
[1] = system: NCI-H292 lung cancer cells; assay: FDA drug screening, complete media vs cholesterol-free media without statin (TABLE 1); assay type: cell-based, human
[2] = system: NCI-H292 lung cancer cells; assay: FDA drug screening, complete media vs cholesterol-free media with simvastatin (TABLE 2); assay type: cell-based, human; details: for Cholesterol-free media + simvastatin (0.04 μM) / Complete Media: NCI-H292 cells
[3] = Complete minus Cholesterol-free; […]
[4] = Complete minus Cholesterol-free; >0 enhanced anti-cancer activity, about 0 neutral, <0 antagonist
[5] = NCI-H292 cells, cholesterol-free media without statin, FDA drug library screen
[6] = NCI-H292 cells, complete media, FDA drug library screen
[7] = drug in cholesterol-free media with simvastatin 0.04 μM
[8] = complete media vs cholesterol-free media + simvastatin (0.04 μM), >0 enhanced anti-cancer activity, about 0 neutral, <0 antagonist
[9] = NCI-H292 cells, cholesterol-free media without statin
[10] = cholesterol-free media with simvastatin 0.04 μM, cell growth value in FDA drug screen
[11] = complete media, cell growth value in FDA drug screen
[12] = complete media minus cholesterol-free media + simvastatin, >0 enhanced anti-cancer activity, about 0 neutral, <0 antagonist
[13] = FDA drug library screen, cholesterol-free media with simvastatin 0.04 μM
[14] = FDA drug library screen, complete media
[15] = complete vs cholesterol-free media; >0 enhanced anti-cancer activity, about 0 neutral, <0 antagonist
[16] = complete media vs cholesterol-free media + simvastatin (0.04 μM), […]

Compound `COc1cc2c(cc1OC)-c1cc3ccc(OC)c(OC)c3c[n+]1CC2.[Cl-]` [Palmatine (chloride)] has a Difference [1, 3] of −0.14, a Cholesterol-free ([1]; NCI-H292 cells, FDA drug library screen, cholesterol-free media without statin) of 0.7642 and a Complete ([1]; NCI-H292 cells, FDA drug library screen, complete media) of 0.6255. The “Cholesterol-free media + simvastatin (0.04 μM)” value ([2]; cholesterol-free media with simvastatin 0.04 μM, FDA drug library screen (TABLE 2)) was 0.706, the “Complete Media” value ([2]; complete media, FDA drug library screen (TABLE 2)) was 0.6459 and the Difference ([2]; complete media minus cholesterol-free media + simvastatin (0.04 μM), […]) was −0.06.
`CC1(C)O[C@@H]2C[C@H]3[C@@H]4C[C@H](F)C5=CC(=O)C=C[C@]5(C)[C@@]4(F)[C@@H](O)C[C@]3(C)[C@]2(C(=O)CO)O1` [Fluocinolone (Acetonide)] gave a Difference [1, 4] of 0.01, a Cholesterol-free [1, 5] of 0.5523 and a Complete [1, 6] of 0.5617. For the same compound, the “Cholesterol-free media + simvastatin (0.04 μM)” value [2, 7] was 0.6444, the “Complete Media” value ([2]; drug in complete media) was 0.4689 and the Difference [2, 8] was −0.18.
`CC(=O)O[C@H]1Cc2ccccc2N(C(N)=O)c2ccccc21` [Eslicarbazepine acetate] showed a Difference [1, 4] of −0.21, a Cholesterol-free [1, 9] of 0.9987 and a Complete ([1]; NCI-H292 cells, complete media) of 0.7874. For the same compound, the “Cholesterol-free media + simvastatin (0.04 μM)” value [2, 10] was 1.032, the “Complete Media” value [2, 11] was 1.104 and the Difference [2, 12] was 0.07.
For Safinamide (mesylate), the Difference ([1]; Complete minus Cholesterol-free; greater than 0 enhanced anti-cancer activity, about 0 neutral, below 0 antagonist) was −0.18, the “Complete Media” value ([2]; drug in complete media) was 0.843 and the Difference [2, 8] was −0.20.
`CC(/C=C1\SC(=S)N(CC(=O)O)C1=O)=C\c1ccccc1` [Epalrestat] gave a Difference [1, 4] of −0.29, a Cholesterol-free [1, 9] of 1.235 and a Complete ([1]; NCI-H292 cells, complete media) of 0.9425. The “Cholesterol-free media + simvastatin (0.04 μM)” value [2, 13] was 0.9966, the “Complete Media” value [2, 14] was 0.8579 and the Difference [2, 8] was −0.14.
`CCc1cc2c(cc1CC)CC(NC[C@H](O)c1ccc(O)c3[nH]c(=O)ccc13)C2` [Indacaterol] was tested, and the Cholesterol-free [1, 5] was 0.6776, the Complete [1, 6] was 1.376 and the Difference [1, 15] was 0.70. For the same compound, the “Cholesterol-free media + simvastatin (0.04 μM)” value [2, 13] was 0.7696, the “Complete Media” value [2, 14] was 1.1 and the Difference [2, 12] was 0.33.
Compound `COc1c(O)cc2c(c1O)[C@@H]1O[C@H](CO)[C@@H](O)[C@H](O)[C@H]1OC2=O` [Bergenin] has a Difference [1, 4] of −0.21, a Cholesterol-free [1, 9] of 0.9949 and a Complete ([1]; NCI-H292 cells, complete media) of 0.7827. For the same compound, the “Cholesterol-free media + simvastatin (0.04 μM)” value [2, 10] was 0.6754, the “Complete Media” value [2, 11] was 0.7494 and the Difference [2, 12] was 0.07.
For `COc1ccc(CCN(C)CCC[C@@](C#N)(c2ccc(OC)c(OC)c2)C(C)C)cc1OC.Cl` [(S)-Verapamil (hydrochloride)], the Difference [1, 3] was −0.20, the Cholesterol-free [1, 9] was 1.169 and the Complete ([1]; NCI-H292 cells, complete media) was 0.9711. For the same compound, the “Cholesterol-free media + simvastatin (0.04 μM)” value [2, 7] was 1.086, the “Complete Media” value ([2]; drug in complete media) was 0.9249 and the Difference [2, 16] was −0.16.
Compound `CC(N)CCCC(C)(C)O` (stereo not drawn) [Heptaminol (hydrochloride)] has a Difference [1, 4] of −0.27, a Cholesterol-free [1, 9] of 0.8584 and a Complete ([1]; NCI-H292 cells, complete media) of 0.5894. The “Cholesterol-free media + simvastatin (0.04 μM)” value [2, 7] was 1.069, the “Complete Media” value ([2]; drug in complete media) was 0.8484 and the Difference [2, 8] was −0.22.
Emamectin (Benzoate) was tested, and the Difference [1, 3] was 0.02, the Cholesterol-free [1, 5] was 0.001259 and the Complete [1, 6] was 0.01673. The “Cholesterol-free media + simvastatin (0.04 μM)” value [2, 13] was 0.006354, the “Complete Media” value [2, 14] was 0.4189 and the Difference ([2]; complete media minus cholesterol-free media + simvastatin, […]) was 0.41.
`Cc1cn[nH]c1` [Fomepizole] gave a Difference [1, 4] of −0.26, a Cholesterol-free [1, 9] of 1.239 and a Complete ([1]; NCI-H292 cells, complete media) of 0.9771. For the same compound, the “Cholesterol-free media + simvastatin (0.04 μM)” value [2, 13] was 0.8562, the “Complete Media” value [2, 14] was 1.121 and the Difference [2, 12] was 0.26.
With `C[C@]12C=CC(=O)C=C1CC[C@@H]1[C@@H]2[C@@H](O)C[C@@]2(C)[C@H]1CC[C@]2(O)C(=O)CO` [Prednisolone] the Difference [1, 4] was −0.02, the Cholesterol-free [1, 5] was 0.4941 and the Complete [1, 6] was 0.4768. The “Cholesterol-free media + simvastatin (0.04 μM)” value [2, 7] was 0.6412, the “Complete Media” value ([2]; drug in complete media) was 0.4437 and the Difference [2, 8] was −0.20.
Compound Lanreotide (acetate) has a Difference [1, 3] of −0.24, a Cholesterol-free [1, 9] of 1.287 and a Complete ([1]; NCI-H292 cells, complete media) of 1.045. The “Cholesterol-free media + simvastatin (0.04 μM)” value [2, 7] was 1.388, the “Complete Media” value ([2]; drug in complete media) was 1.218 and the Difference [2, 16] was −0.17.
`COC(=O)[C@@H]1CC2=CC(=O)CC[C@]2(C)[C@@]23O[C@@H]2C[C@@]2(C)[C@@H](CC[C@@]24CCC(=O)O4)[C@H]13` [Eplerenone] gave a Cholesterol-free [1, 5] of 1.018, a Complete [1, 6] of 1.291 and a Difference [1, 15] of 0.27. The “Cholesterol-free media + simvastatin (0.04 μM)” value [2, 7] was 1.039, the “Complete Media” value ([2]; drug in complete media) was 0.8449 and the Difference [2, 8] was −0.19.
